# Values of other authors in patent US9119796B2, “Razor comprising a molded shaving aid composition comprising a pyrithione source” (The Gillette Company, priority 2011, dated 2015).
# Tested on: microbials
# Settings: soap bar composition with platelet ZPT compared with particulate ZPT (median about 0.70 microns, mean about 0.75 microns, thickness less than 0.6 microns); FIG. 1 of U.S. Ser. No. 13/036,889
smiles,measurement,value
"[O-]n1ccccc1=S.[O-]n1ccccc1=S.[Zn+2] [platelet ZPT, zinc salt of 1-hydroxy-2-pyridinethione]",number of colony forming units (CFUs) that form on a substrate,reduces the number of colony forming units (CFUs)
